Test results: patent US20250171437A1 (Agios Pharmaceuticals,Inc., priority 2022, published 2025)

These compounds were tested against T1, human PAH with the R408W mutation (A375 R408W cells) (Homo sapiens, UniProt P00439, R408W) (assay: Cell Based Phenylalanine Flux Assay). Settings: A375 R408W cells; 24 hrs with compound, then 20 μM sepiapterin and 800 μM 13C9,15N-Phenylalanine for 4 hours; 13C-Tyrosine by LC-MS; average where tested multiple times.
T1 construct: expressed in transfected cells
T1 sequence (P00439 1-452 R408W): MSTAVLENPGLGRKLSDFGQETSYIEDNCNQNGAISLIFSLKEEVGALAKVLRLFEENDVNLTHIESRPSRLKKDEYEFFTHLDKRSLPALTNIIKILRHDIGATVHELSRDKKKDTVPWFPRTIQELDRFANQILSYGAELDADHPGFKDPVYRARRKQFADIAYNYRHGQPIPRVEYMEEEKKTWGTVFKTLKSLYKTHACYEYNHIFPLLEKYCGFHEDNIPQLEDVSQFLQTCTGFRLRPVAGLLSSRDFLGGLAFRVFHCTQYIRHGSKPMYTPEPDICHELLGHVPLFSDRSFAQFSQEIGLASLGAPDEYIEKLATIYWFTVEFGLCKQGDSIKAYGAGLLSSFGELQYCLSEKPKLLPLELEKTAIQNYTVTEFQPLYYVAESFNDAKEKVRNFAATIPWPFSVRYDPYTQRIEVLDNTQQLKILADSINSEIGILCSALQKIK
Method in brief: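 Puromycin-selected A375 line, lentiviral hPAH R408W; cmpd 24 h, 37 °C, 5% CO2, 0.5% DMSO; then 20 μM sepiapterin + 800 μM 13C9,15N-Phe, 4 h; media extracted in 80% MeCN; 13C-Tyr by LC-MS; AC50 from 10-pt curves.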

| Compound | AC50 |
| --- | --- |
| O=C(c1oc(-c2cnccn2)nc1C(F)F)N1CCc2[nH]cnc2[C@H]1c1nc2cc(F)ccc2o1 [Example 527, (S)-(4-(difluoromethyl)-2-(pyrazin-2-yl)oxazol-5-yl)(4-(5-fluorobenzo[d]oxazol-2-yl)-6,7-dihydro-1H-imidazo[4,5-c]pyridin-5(4H)-yl)methanone] | ≤ 0.5 µM |
| Cc1ccc2nc([C@@H]3c4nc[nH]c4CCN3C(=O)c3nnc(-c4cc[nH]n4)o3)oc2c1 [Example 359, (S)-(5-(1H-pyrazol-3-yl)-1,3,4-oxadiazol-2-yl)(4-(6-methylbenzo[d]oxazol-2-yl)-6,7-dihydro-1H-imidazo[4,5-c]pyridin-5(4H)-yl)methanone] | 0.5 to 1 µM |
| Cn1nc(C(F)F)nc1C(=O)N1CCc2[nH]cnc2[C@H]1c1nc2ccccc2o1 [Example 561, (S)-(4-(benzo[d]oxazol-2-yl)-6,7-dihydro-1H-imidazo[4,5-c]pyridin-5(4H)-yl)(3-(difluoromethyl)-1-methyl-1H-1,2,4-triazol-5-yl)methanone] | 0.5 to 1 µM |
| COc1cccc2nc([C@@H]3c4nc[nH]c4CCN3C(=O)c3ncnn3C)oc12 [Example 775, (S)-(4-(7-methoxybenzo[d]oxazol-2-yl)-6,7-dihydro-1H-imidazo[4,5-c]pyridin-5(4H)-yl)(1-methyl-1H-1,2,4-triazol-5-yl)methanone] | 0.5 to 1 µM |
| Cc1ccc2oc([C@@H]3c4nc[nH]c4CCN3C(=O)c3nnc(-c4ncccc4F)o3)nc2c1 [Example 653, (S)-(5-(3-fluoropyridin-2-yl)-1,3,4-oxadiazol-2-yl)(4-(5-methylbenzo[d]oxazol-2-yl)-6,7-dihydro-1H-imidazo[4,5-c]pyridin-5(4H)-yl)methanone] | ≤ 0.5 µM |
| O=C(c1cnn2cc(-c3ccccn3)ccc12)N1CCc2[nH]cnc2[C@@H]1c1nc2cccc(F)c2o1 [Example 452, (R)-(4-(7-fluorobenzo[d]oxazol-2-yl)-6,7-dihydro-1H-imidazo[4,5-c]pyridin-5(4H)-yl)(6-(pyridin-2-yl)pyrazolo[1,5-a]pyridin-3-yl)methanone] | 1 to 5 µM |
| O=C(c1ccnn1C(F)F)N1CCc2[nH]cnc2[C@@H]1c1nc2cc(F)ccc2o1 [Example 94, (R)-(1-(difluoromethyl)-1H-pyrazol-5-yl)(4-(5-fluorobenzo[d]oxazol-2-yl)-6,7-dihydro-1H-imidazo[4,5-c]pyridin-5(4H)-yl)methanone] | 1 to 5 µM |
| Cn1cncc1-c1nc(C(F)F)c(C(=O)N2CCc3[nH]cnc3[C@H]2c2nc3cccc(F)c3o2)o1 [Example 692, (S)-(4-(difluoromethyl)-2-(1-methyl-1H-imidazol-5-yl)oxazol-5-yl)(4-(7-fluorobenzo[d]oxazol-2-yl)-6,7-dihydro-1H-imidazo[4,5-c]pyridin-5(4H)-yl)methanone] | ≤ 0.5 µM |
| O=C(c1nnc(-c2ccccn2)o1)N1CCc2[nH]cnc2[C@@H]1c1nc2c(F)ccc(F)c2o1 [Example 519, (R)-(4-(4,7-difluorobenzo[d]oxazol-2-yl)-6,7-dihydro-1H-imidazo[4,5-c]pyridin-5(4H)-yl)(5-(pyridin-2-yl)-1,3,4-oxadiazol-2-yl)methanone] | 0.5 to 1 µM |
| O=C(c1ocnc1C(F)F)N1CCc2[nH]cnc2[C@H]1c1nc2c(F)ccc(F)c2o1 [Example 373, (S)-(4-(4,7-difluorobenzo[d]oxazol-2-yl)-6,7-dihydro-1H-imidazo[4,5-c]pyridin-5(4H)-yl)(4-(difluoromethyl)oxazol-5-yl)methanone] | ≤ 0.5 µM |
| COc1ccc(-c2nnc(C(=O)N3CCc4[nH]cnc4[C@@H]3c3nc4cc(F)ccc4o3)o2)nc1 [Example 441, (R)-(4-(5-fluorobenzo[d]oxazol-2-yl)-6,7-dihydro-1H-imidazo[4,5-c]pyridin-5(4H)-yl)(5-(5-methoxypyridin-2-yl)-1,3,4-oxadiazol-2-yl)methanone] | 1 to 5 µM |
| C[C@@H](O)c1nc(C(F)F)c(C(=O)N2CCc3[nH]cnc3[C@@H]2c2nc3cccc(F)c3o2)o1 [Example 246, (4-(difluoromethyl)-2-((R)-1-hydroxyethyl)oxazol-5-yl)((R)-4-(7-fluorobenzo[d]oxazol-2-yl)-6,7-dihydro-1H-imidazo[4,5-c]pyridin-5(4H)-yl)methanone] | ≤ 0.5 µM |

Results, then the compound that gave them:

| AC50 | Compound |
| --- | --- |
| 1 to 5 µM | O=C(c1ocnc1C1CC1)N1CCc2[nH]cnc2[C@@H]1c1nc2cc(F)ccc2o1 [Example 42, (R)-(4-cyclopropyloxazol-5-yl)(4-(5-fluorobenzo[d]oxazol-2-yl)-6,7-dihydro-1H-imidazo[4,5-c]pyridin-5(4H)-yl)methanone] |
| 1 to 5 µM | (R)-(3-chloro-1-methyl-1H-1,2,4-triazol-5-yl)(4-(6-fluorobenzo[d]oxazol-2-yl)-6,7-dihydro-1H-imidazo[4,5-c]pyridin-5(4H)-yl)methanone [Example 344] |
| 1 to 5 µM | Cc1nc(-c2ccccn2)oc1C(=O)N1CCc2[nH]cnc2[C@@H]1c1nc2cc(F)ccc2o1 [Example 32, (R)-(4-(5-fluorobenzo[d]oxazol-2-yl)-6,7-dihydro-1H-imidazo[4,5-c]pyridin-5(4H)-yl)(4-methyl-2-(pyridin-2-yl)oxazol-5-yl)methanone] |
| ≤ 0.5 µM | COc1ccc(-c2nc(C(F)F)c(C(=O)N3CCc4[nH]cnc4[C@H]3c3nc4cc(F)ccc4o3)o2)nc1 [Example 445, (S)-(4-(difluoromethyl)-2-(5-methoxypyridin-2-yl)oxazol-5-yl)(4-(5-fluorobenzo[d]oxazol-2-yl)-6,7-dihydro-1H-imidazo[4,5-c]pyridin-5(4H)-yl)methanone] |
| ≤ 0.5 µM | O=C(c1ocnc1C(F)F)N1CCc2[nH]cnc2[C@@H]1c1nc2c(F)ccc(F)c2o1 [Example 374, (R)-(4-(4,7-difluorobenzo[d]oxazol-2-yl)-6,7-dihydro-1H-imidazo[4,5-c]pyridin-5(4H)-yl)(4-(difluoromethyl)oxazol-5-yl)methanone] |
| 1 to 5 µM | Cc1ccc2nc([C@H]3c4nc[nH]c4CCN3C(=O)c3oc(C(C)(C)O)nc3C(F)F)oc2c1 [Example 316, (R)-(4-(difluoromethyl)-2-(2-hydroxypropan-2-yl)oxazol-5-yl)(4-(6-methylbenzo[d]oxazol-2-yl)-6,7-dihydro-1H-imidazo[4,5-c]pyridin-5(4H)-yl)methanone] |
| 1 to 5 µM | Cn1nc(Cl)cc1C(=O)N1CCc2[nH]cnc2[C@@H]1c1nc2cc(F)ccc2o1 [Example 128, (R)-(3-chloro-1-methyl-1H-pyrazol-5-yl)(4-(5-fluorobenzo[d]oxazol-2-yl)-6,7-dihydro-1H-imidazo[4,5-c]pyridin-5(4H)-yl)methanone] |
| ≤ 0.5 µM | Cc1ncoc1C(=O)N1CCc2[nH]cnc2[C@H]1c1nc2ccccc2o1 [Example 793, (S)-(4-(benzo[d]oxazol-2-yl)-6,7-dihydro-1H-imidazo[4,5-c]pyridin-5(4H)-yl)(4-methyloxazol-5-yl)methanone] |
| ≤ 0.5 µM | CC(C)(O)c1nc(C(F)F)c(C(=O)N2CCc3[nH]cnc3[C@H]2c2nc3cccc(F)c3o2)o1 [Example 193, (S)-(4-(difluoromethyl)-2-(2-hydroxypropan-2-yl)oxazol-5-yl)(4-(7-fluorobenzo[d]oxazol-2-yl)-6,7-dihydro-1H-imidazo[4,5-c]pyridin-5(4H)-yl)methanone] |
| 0.5 to 1 µM | C[C@@H](O)c1nc(C(F)F)c(C(=O)N2CCc3[nH]cnc3[C@H]2c2nc3ccc(F)cc3o2)o1 [Example 239, (4-(difluoromethyl)-2-((R)-1-hydroxyethyl)oxazol-5-yl)((S)-4-(6-fluorobenzo[d]oxazol-2-yl)-6,7-dihydro-1H-imidazo[4,5-c]pyridin-5(4H)-yl)methanone] |
| ≤ 0.5 µM | COc1cccc2nc([C@@H]3c4nc[nH]c4CCN3C(=O)c3ccnn3C(C)C)oc12 [Example 765, (S)-(1-isopropyl-1H-pyrazol-5-yl)(4-(7-methoxybenzo[d]oxazol-2-yl)-6,7-dihydro-1H-imidazo[4,5-c]pyridin-5(4H)-yl)methanone] |
| ≥ 5 µM | Cc1ccc2nc([C@H]3c4nc[nH]c4CCN3C(=O)c3oc(C(C)(C)O)nc3C)oc2c1 [Example 320, (R)-(2-(2-hydroxypropan-2-yl)-4-methyloxazol-5-yl)(4-(6-methylbenzo[d]oxazol-2-yl)-6,7-dihydro-1H-imidazo[4,5-c]pyridin-5(4H)-yl)methanone] |
| 1 to 5 µM | O=C(c1cnn2cc(Br)ccc12)N1CCc2[nH]cnc2[C@@H]1c1nc2cc(F)ccc2o1 [Example 70, (R)-(6-bromopyrazolo[1,5-a]pyridin-3-yl)(4-(5-fluorobenzo[d]oxazol-2-yl)-6,7-dihydro-1H-imidazo[4,5-c]pyridin-5(4H)-yl)methanone] |

Same assay, conditions: A375 cells expressing R408W PAH; 24 hrs with compound, then 20 μM sepiapterin and 800 μM 13C9,15N-Phenylalanine for 4 hours; 13C-Tyrosine by LC-MS; average where tested multiple times

| AC50 | Compound |
| --- | --- |
| ≥ 5 µM | Cc1ccc2nc(C3c4nc[nH]c4CCN3C(=O)c3cnn4cc(CCN(C)C)ccc34)oc2c1 (centres unmarked) |
| ≥ 5 µM | Fc1ccc2oc(C3c4nc[nH]c4CCN3Cc3cnco3)nc2c1 (centres unmarked) |
| ≥ 5 µM | Cn1cc(-c2ncc(C(=O)N3CCc4[nH]cnc4C3c3nc4ccc(Br)cc4o3)o2)cn1 (centres unmarked) |
| ≥ 5 µM | Cc1ccc2nc(C3c4nc[nH]c4CCN3C(=O)c3cnn4cc(CN(C)C)ccc34)oc2c1 (centres unmarked) |
